Read-outs that look alike come from different tables or passages of the source. Starred links: 1 amine or outer side, 2 acyl side, 3 side chain; linkers in the order of their positions; H or OH if unused. Non-standard residues stand in square brackets, D forms with d. Residues, ends and D or L forms follow the SMILES beside them. dεLys(Nα-amidino) = N=C(N)N[C@H](CCCCN[*:1])C(=O)[*:2]; βAla = NCCC(=O)O
Legend:
Assay type in all cases: biochemical
[1] = molecular target: T1, bZiPro (unlinked binary Zika virus NS2B-NS3 protease) (Zika virus, UniProt A0A024B7W1); experiment: Enzyme kinetics with bZiPro, fluorogenic substrate Phac-Leu-Lys-Lys-Arg-AMC; conditions: for Ki: mean±SD of at least three independent measurements, substrate 10 μM in assay, room temperature, pH 8.5
T1 construct: The viral protease consists of the N‐terminal third of the nonstructural protein NS3; the NS2B construct ends at Glu96; His6 (cleaved yes); made in house
T1 sequence (A0A024B7W1 1503-1680 limits assumed): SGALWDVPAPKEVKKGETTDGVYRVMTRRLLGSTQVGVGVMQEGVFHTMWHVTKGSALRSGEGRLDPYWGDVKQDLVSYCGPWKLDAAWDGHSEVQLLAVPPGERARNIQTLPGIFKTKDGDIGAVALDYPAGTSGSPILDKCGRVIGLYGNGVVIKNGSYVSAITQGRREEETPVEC
T1 sequence (A0A024B7W1 1425-1464 limits assumed): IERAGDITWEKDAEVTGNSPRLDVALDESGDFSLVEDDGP
Method: (§1) Enzyme kinetics. Measurements with bZiPro15 and the covalent WNV NS2B‐NS3 construct^10 were performed at room temperature in black 96 well plates using a Fluoroskan Ascent® plate reader (Thermo Fisher Scientific, Vantaa, Finland) with λ ex at 355 nm and λ em at 460 nm. Each well contained 125 μL inhibitor dissolved in buffer (for bZiPro: 20 mM Tris×HCl pH 8.5, 2 mM DTT, 10 w/v glycerol and 0.01 w/v Triton X‐100;18 for WNV protease: 100 mM Tris×HCl pH 8.5, containing 32 w/v glycerol and 0.01 w/v Triton X‐10012) and 50 μL substrate Phac‐Leu‐Lys‐Lys‐Arg‐AMC12 (40 μM for bZiPro (10 μM in assay, K M=1.4 μM) and 400 μM for the WNV protease (100 μM in assay, K M=53 μM)). The measurements were started by addition of 25 μL enzyme solution (16 nM for bZiPro (2.0 nM in assay), and 64 nM for the WNV protease (8.0 nM in assay)). Data points were collected each 15 s over a period of 10 min using eight different inhibitor concentrations. […] The K i values and their standard deviation were obtained from at least three independent measurements.(1) vi=Vmax×[S]/KM1+[I]/Ki+[S]
The constants K M and V max were obtained from independent measurements with six different substrate concentrations in absence of inhibitor. For inhibitor 10 with bZiPro, additional measurements at three substrate concentrations (10, 5, and 2.5 μM in assay) were performed to obtain the Dixon plot shown in Figure 4.

[2] = molecular target: T2, WNV NS2B-NS3 protease (WNV-Pro) (West Nile virus, UniProt P06935); experiment: Enzyme kinetics with the covalent WNV NS2B-NS3 construct, substrate Phac-Leu-Lys-Lys-Arg-AMC
T2 construct: NS3 has to form a complex with its cofactor NS2B to achieve proteolytic activity; The viral protease consists of the N‐terminal third of the nonstructural protein NS3
T2 sequence (P06935 1424-1463): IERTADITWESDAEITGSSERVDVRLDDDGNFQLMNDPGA
T2 sequence (P06935 1502-1679): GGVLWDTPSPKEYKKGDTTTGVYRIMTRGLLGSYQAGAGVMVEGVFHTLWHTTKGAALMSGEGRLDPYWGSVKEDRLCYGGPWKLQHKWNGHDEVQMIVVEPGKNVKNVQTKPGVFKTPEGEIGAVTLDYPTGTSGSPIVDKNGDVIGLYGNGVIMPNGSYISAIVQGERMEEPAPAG
Method: as §1

[3] = molecular target: T3, bD4Pro (unlinked binary dengue-4 virus NS2B-NS3 protease) (Dengue virus type 4, UniProt Q2YHF2); experiment: Enzyme kinetics with bD4Pro, substrate Benzoyl-Nle-Lys-Arg-Arg-AMC
T3 construct: The viral protease consists of the N‐terminal third of the nonstructural protein NS3; NS3 has to form a complex with its cofactor NS2B to achieve proteolytic activity; His6 (cleaved yes); made in house
T3 sequence (Q2YHF2 1475-1652 limits assumed): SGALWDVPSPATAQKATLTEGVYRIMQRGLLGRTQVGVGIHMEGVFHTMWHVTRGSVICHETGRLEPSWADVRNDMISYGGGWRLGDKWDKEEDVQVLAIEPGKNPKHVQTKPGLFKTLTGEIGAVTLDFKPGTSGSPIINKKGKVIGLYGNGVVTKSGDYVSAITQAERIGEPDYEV
T3 sequence (Q2YHF2 1397-1436 limits assumed): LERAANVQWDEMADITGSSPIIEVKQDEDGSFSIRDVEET
Method: Measurements with the dengue 4 virus protease construct (bD4Pro; expressed and purified by a similar methodology as described for bZiPro15 with slight modification of using Tobacco Etch Virus (TEV) protease instead of thrombin for His6‐tag cleavage) were performed in a Cytation 3 Mulitmode plate reader with λ ex at 380 nm and λ em at 460 nm. Assays were carried out as triplicate at 37 °C. Before measurement, the protease (final assay concentration 3 nM) was preincubated with varying concentrations of inhibitors in assay buffer (20 mM Tris pH 8.5, 10 % glycerol, 0.01 % Triton X‐100) for 1 h at room temperature in Corning black clear bottom 96‐well plates. The reaction was started by addition of the substrate Benzoyl‐Nle‐Lys‐Arg‐Arg‐AMC (final assay concentration 50 μM, K M=48.4 μM). Fluorescent readings were recorded at 1‐minute intervals over 10 minutes. The steady‐state rates v i in presence of inhibitor were calculated from the slopes of the progress curves using Graph Pad Prism. The v i values were fitted to Equation (2) as function of the inhibitor concentration [I] providing the IC50 values, where v 0 is the rate in absence of inhibitor and s a slope factor. The obtained IC50 values were finally converted into K i values by the Cheng‐Prusoff Equation (2).(2) vi=v0/1+I/IC50^s (3) Ki=IC50/1+S/KM

[4] = mean±SD of at least three independent measurements, substrate 100 μM in assay, room temperature, pH 8.5, read-out: K i WNV-Pro
[5] = mean±SD of at least three independent measurements, 37 °C, IC50 converted into K i by Cheng-Prusoff, read-out: K i bD4Pro

SMILES	Ki ([1]; K i bZiPro)	Ki [2]	Ki [3]	fold improved potency compared with 29 ([1]; uncharged amide analogue versus free P1 carboxyl compound 29)	Ki ([1]; read-out: K i bZiPro)	Ki [2, 4]	Ki [3, 5]	times less potent inhibitor of bZiPro than analogue 10 ([1]; compared with cyclic analogue 10)
N=C(N)N[C@H]1CCCNC(=O)[C@H](CCCCN)NC(=O)[C@H](CCCCN)NC(=O)Cc2ccc(cc2)CNC(=O)CCCNC1=O [Inhibitor 3]	846 ± 111 nM	27800 ± 4400 nM	117000 ± 5000 nM	–	–	–	–	–
N=C(N)N[C@H]1CCCCNC(=O)[C@H](CCCCN)NC(=O)[C@H](CCCCN)NC(=O)Cc2ccc(cc2)CNC(=O)CCCNC1=O [Inhibitor 2]	91.8 ± 6 nM	6300 ± 490 nM	11000 ± 1000 nM	–	–	–	–	–
N=C(N)N[C@@H]1CCCCNC(=O)[C@H](CCCCN)NC(=O)[C@H](CCCCN)NC(=O)CCCCCNC(=O)CNC1=O [Inhibitor 24]	15.4 ± 2.6 nM	973 ± 173 nM	1990 ± 90 nM	–	–	–	–	–
N=C(N)N[C@H](CCCCNC(=O)[C@H](CCCCN)NC(=O)[C@H](CCCCN)NC(=O)Cc1cccc(CNC(=O)CN)c1)C(N)=O [Inhibitor 30]	13.6 ± 2.6 nM	1550 ± 380 nM	775 ± 47 nM	more than 100 fold	–	–	–	–
N=C(N)N[C@@H]1CCCCNC(=O)[C@H](CCCCN)NC(=O)[C@H](CCCCN)NC(=O)CCCCNC(=O)CNC1=O [Inhibitor 23]	16.7 ± 3.4 nM	1220 ± 20 nM	1120 ± 50 nM	–	–	–	–	–
N=C(N)N[C@@H]1CCCCNC(=O)[C@H](CCCCN)NC(=O)[C@H](CCCCN)NC(=O)Cc2cccc(c2)CNC1=O [Inhibitor 12]	37.3 ± 4.7 nM	15300 ± 800 nM	1280 ± 50 nM	–	–	–	–	–
CC(C)[C@@H]1NC(=O)[C@H](NC(=N)N)CCCCNC(=O)[C@H](CCCCN)NC(=O)[C@H](CCCCN)NC(=O)Cc2cccc(c2)CNC1=O [Inhibitor 17]	42.8 ± 2.2 nM	6710 ± 320 nM	2810 ± 180 nM	–	–	–	–	–
N=C(N)N[C@@H]1CCCCNC(=O)[C@H](CCCCN)NC(=O)[C@H](CCCCN)NC(=O)CNC(=O)CCNC(=O)CNC1=O [Inhibitor 27] (cyclo(G[βAla]GKK[dεLys(Nα-amidino)]))	–	–	–	–	7.35 ± 0.39 nM	468 ± 3 nM	815 ± 79 nM	–
C[C@H]1NC(=O)[C@H](NC(=N)N)CCCCNC(=O)[C@H](CCCCN)NC(=O)[C@H](CCCCN)NC(=O)Cc2cccc(c2)CNC1=O [Inhibitor 16]	3.52 ± 1.09 nM	237 ± 21 nM	125 ± 4 nM	–	–	–	–	–
N=C(N)N[C@@H]1CCCCNC(=O)[C@H](CCCCN)NC(=O)[C@H](CCCCN)NC(=O)Cc2ccc(cc2)CNC(=O)CCCNC1=O [Inhibitor 4]	70.1 ± 9.2 nM	4970 ± 500 nM	4730 ± 500 nM	–	–	–	–	–
N=C(N)N[C@@H]1CCCCNC(=O)[C@H](CCCCN)NC(=O)[C@H](CCCCN)NC(=O)CNC(=O)CNC(=O)CNC1=O [Inhibitor 25] (cyclo(GGGKK[dεLys(Nα-amidino)]))	3.74 ± 0.2 nM	129 ± 7 nM	378 ± 27 nM	–	–	–	–	–
N=C(N)N[C@@H]1CCCCNC(=O)[C@H](CCCCN)NC(=O)[C@H](CCCCN)NC(=O)CCNC(=O)CNC(=O)CNC1=O [Inhibitor 26] (cyclo(GG[βAla]KK[dεLys(Nα-amidino)]))	–	–	–	–	1.72 ± 0.03 nM	68.6 ± 13.1 nM	160 ± 5 nM	–
NCCCC[C@@H]1NC(=O)Cc2cccc(c2)CNC(=O)CNC(=O)[C@H](NC(N)=O)CCCCNC(=O)[C@H](CCCCN)NC1=O [Inhibitor 21]	12000 nM	68000 nM	135000 nM	–	–	–	–	–
N=C(N)N[C@H](CCCCNC(=O)[C@H](CCCCN)NC(=O)[C@H](CCCCN)NC(=O)Cc1cccc(CNC(=O)CN)c1)C(=O)O [Inhibitor 29]	2040 ± 600 nM	51600 ± 700 nM	75000 ± 3400 nM	–	–	–	–	more than 1000 times
N=C(N)N[C@@H]1CCCCNC(=O)[C@H](CCCCN)NC(=O)[C@H](CCCCN)NC(=O)Cc2cccc(c2)NC(=O)CCCNC1=O [Inhibitor 14]	106 ± 29 nM	16500 ± 4600 nM	5800 ± 360 nM	–	–	–	–	–
